Our source for the melting point values is patent US20050075334A1, “Novel compounds” (priority 2001, published 2005).

Usually melting point stands for the temperature, or range, at which the solid turns liquid. In the case of `COC(=O)c1cccc2[nH]c(Sc3cccc4c(=O)cc[nH]c34)nc12` [Example 3, 2-(4-Oxo-1,4-dihydro-quinolin-8-ylsulfanyl)-1H-benzoimidazole-4-carboxylic Acid Methyl Ester], the melting point is above 250 °C.
As to `N#Cc1c(Cl)ccc2[nH]c(Sc3cccc4c(=O)cc[nH]c34)nc12` [Example 8, 5-Chloro-2-[(4-oxo-1,4-dihydroquinolin-8-yl)thio]-1H-benzimidazole-4-carbonitrile], the melting point is 376 °C (dec.).
`C[S+]([O-])c1c[nH]c2c(Sc3nc4cc(Cl)ccc4[nH]3)ccc([N+](=O)[O-])c12` (stereo not drawn) [Example 16, 5-Chloro-2-([3-(methylsulfinyl)-4-nitro-1H-indol-7-yl]thio}-1H-benzimidazole] had a melting point of 243 to 246 °C.
